From PMC10766984, “Josephin domain containing 2 (JOSD2) promotes lung cancer by inhibiting LKB1 (Liver kinase B1) activity” (Signal Transduction and Targeted Therapy, 2024)
Several values for one entry are separate records, joined by “and”; a condition that tells them apart may be missing. Equal values may be shown once.

How the values were obtained:
Ataxin-3 = Ataxin-3 (Homo sapiens, UniProt P54252); assay: In vitro ubiquitin-AMC assay with GST-Ataxin-3; type: biochemical; details: incubated with GST-Ataxin-3 at 37 °C for 30 min
Chain of Ataxin-3 (P54252 whole entry): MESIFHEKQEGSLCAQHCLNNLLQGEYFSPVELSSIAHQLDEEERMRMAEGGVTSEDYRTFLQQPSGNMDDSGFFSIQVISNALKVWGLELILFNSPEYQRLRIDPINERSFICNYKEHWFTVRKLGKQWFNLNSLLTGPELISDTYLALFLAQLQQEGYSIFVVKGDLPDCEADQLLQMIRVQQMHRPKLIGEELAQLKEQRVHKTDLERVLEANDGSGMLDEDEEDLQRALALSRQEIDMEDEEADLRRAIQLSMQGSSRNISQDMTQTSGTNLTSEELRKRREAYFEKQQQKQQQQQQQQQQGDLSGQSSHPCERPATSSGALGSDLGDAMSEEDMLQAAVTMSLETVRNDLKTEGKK
From the text: (§1) (means ± SD, n=3). […] (means ± SD, n=3). […] (means ± SD, n=3). […] (means ± SD, n=3).

LKB1-WT NSCLC cell lines = assay: Proliferation assay, panel of LKB1-WT cell lines; type: cell-based; details: average of four LKB1-WT cell lines, 72 h
Description: (§2) The indicated cell lines were treated with indicated compounds at a series of concentrations for 72 h, followed by cell proliferation assay and colony formation assay. Black dashed line indicates 50% of cell survival.
(§3) For cell proliferation assay, cells infected with lentiviruses packaged indicated plasmids were seeded indicated number cells per well in 96-well plates. Cell number (absorbance) was then estimated by the sulforhodamine B (SRB) (Sigma-Aldrich, #230162) assay and the absorbance of the individual wells was determined at the optical density of 515 nm. For colony formation assay, cells infected with lentiviruses packaged indicated plasmids were seeded indicated number cells per well in 6-well plates. Two weeks later, cells were stained with SRB and the numbers of colonies having more than 50 cells were counted.

NCI-H23 cells = assay: Proliferation assay in LKB1-null cells, 72 h; type: cell-based; details: Homo sapiens
Description: as §3
(§4) (a) Proliferation assay in LKB1-null cells (means ± SD, n=3). […] Red dashed line indicates 50% of cell survival. (b) Proliferation assay in A549 harboring LKB1-null/WT/3KR (Top) and immunoblotting analysis showing the overexpression efficiency of LKB1-WT/3KR (Bottom). […] (means ± SD, n=3). (c) Representative images of in situ TUNEL assay of cancer cells inside tumor mass with or without JOSD2 inhibitor treatment. (means ± SD, n=3). n.s: P > 0.05; *P < 0.05; **P < 0.01.

NCI-H838 cells = assay: Proliferation assay in LKB1-null cells, 72 h; type: cell-based; details: Homo sapiens
Description: as §3, §4

NCI-H460 cells = assay: Proliferation assay in LKB1-null cells, 72 h; type: cell-based; details: Homo sapiens
Description: as §3, §4

A549 cells = assay: Proliferation assay in LKB1-null cells, 72 h; type: cell-based; details: Homo sapiens
Description: as §3, §4

NCI-H1395 cells = assay: Proliferation assay in LKB1-null cells, 72 h; type: cell-based; details: Homo sapiens
Description: as §3, §4

Ataxin-3L = molecular target: T1, Ataxin-3L (Homo sapiens, UniProt Q9H3M9); assay: In vitro ubiquitin-AMC assay with GST-Ataxin-3L; type: biochemical; details: incubated with GST-Ataxin-3L at 37 °C for 30 min
T1 sequence (Q9H3M9 1-355): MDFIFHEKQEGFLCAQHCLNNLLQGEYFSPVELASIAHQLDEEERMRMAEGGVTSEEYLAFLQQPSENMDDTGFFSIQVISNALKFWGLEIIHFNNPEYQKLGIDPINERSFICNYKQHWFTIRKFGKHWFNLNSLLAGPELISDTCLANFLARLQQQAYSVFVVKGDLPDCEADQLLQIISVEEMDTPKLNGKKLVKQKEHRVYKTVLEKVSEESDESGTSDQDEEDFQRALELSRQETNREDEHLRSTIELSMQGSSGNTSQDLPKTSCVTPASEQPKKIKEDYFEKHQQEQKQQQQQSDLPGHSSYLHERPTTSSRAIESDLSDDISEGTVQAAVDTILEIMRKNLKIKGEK
From the text: as §1

[1] = tested on: A549 harboring LKB1-null/WT/3KR; assay: Proliferation assay in cells harboring LKB1-null/WT/3KR; type: cell-based; details: series of concentrations, 72 h
From the text: as §4

[2] = tested on: LKB1-null NSCLC cell lines; assay: Proliferation assay, panel of five LKB1-null cell lines; type: cell-based; details: 72 h
Description: as §3, §4

JOSD1 = JOSD1 (Homo sapiens, UniProt Q15040); assay: In vitro ubiquitin-AMC assay with GST-JOSD1; type: biochemical; details: incubated with GST-JOSD1 at 37 °C for 30 min
From the text: as §1

NCI-H292 cells = assay: Proliferation assay (SRB), 72 h; type: cell-based; details: Homo sapiens, LKB1-WT
Description: as §2, §3

NCI-H1299 cells [3] = assay: Proliferation assay (SRB), 72 h; type: cell-based; details: Homo sapiens, LKB1-WT
Description: as §2, §3

PC-9 cells = assay: Proliferation assay (SRB), 72 h; type: cell-based; details: Homo sapiens, LKB1-WT
Description: as §2, §3

NCI-H358 cells = assay: Proliferation assay (SRB), 72 h; type: cell-based; details: Homo sapiens, LKB1-WT
Description: as §2, §3

[4] = tested on: NCI-H1299 xenografted tumors; assay: TUNEL assay in xenografted tumors; type: in vivo, BALB/c-Nude mice; details: oral administration, in situ TUNEL
From the text: Apoptosis in xenografted tumors was detected by a TUNEL assay kit (Beyotime Biotechnology, Shanghai, China), according to the manufacturer's protocols. Images were captured by a fluorescence microscope.
as §4

NCI-H1299 cells [5] = assay: Apoptosis, IB of cell lysates after 72 h; type: cell-based; details: series of concentrations
From the text: as §1

[6] = tested on: NCI-H1299 xenografted tumors; assay: Antitumor activity of HY041004 in vivo; set-up: species or system BALB/c-Nude mice; details: for Tumor Weight: at the endpoint; for T/C: RTVtreated / RTVcontrol
Description: as §2
Female BALB/c-Nude mice (4-5 weeks) were subcutaneously transplanted with 1 mm^3 NCI-H1299 xenograft tumor mass. […] The tumor volume was measured by a caliper every 2 days as soon as the tumor reached a palpable size. Relative tumor volume (RTV) was calculated by (RTV=TVt / TV0, where TV0 is the tumor volume measured when starting treatment). The T/C value was calculated as RTVtreated / RTVcontrol.

## O=C1c2ccncc2C(=O)c2c1nnn2Cc1cc(F)cc(Cl)c1 [HY041004, 3-(3-chloro-5-fluorobenzyl)-3H-[1,2,3] triazolo[4,5-g]isoquinoline-4,9-dione]
Ataxin-3
  IC50: 5400 nM
LKB1-WT NSCLC cell lines
  IC50: 0.122 µM
NCI-H23 cells
  IC50: 0.73 µM
NCI-H838 cells
  IC50: 0.72 µM
NCI-H460 cells
  IC50: 0.24 µM
A549 cells
  IC50: 0.46 µM
NCI-H1395 cells
  IC50: 0.46 µM
Ataxin-3L
  IC50: 12800 nM
[1]
  Anti-proliferative effect upon exogenous introduction of LKB1-WT, but not 3KR: strengthen the anti-proliferative effect
[2]; average of five LKB1-null cell lines
  IC50: 0.52 µM
[2]; compared with LKB1 wild-type NSCLC cell lines
  Susceptibility of LKB1-null cell lines: less than that in LKB1 wild-type NSCLC cell lines
other
  melting point: 172 to 174 °C
JOSD1
  IC50: 470 nM
NCI-H292 cells
  IC50: 0.14 µM
NCI-H1299 cells [3]
  IC50: 0.1 µM
PC-9 cells
  IC50: 0.12 µM
NCI-H358 cells
  IC50: 0.13 µM
[4]
  Intratumor cell apoptosis: induced intratumor cell apoptosis
NCI-H1299 cells [5]
  Cell apoptosis: induced cell apoptosis in a concentration-dependent manner
[6]; 50 mg/kg orally twice daily
  Tumor Weight: 1.181 g and 1.18 ± 0.49 g
  T/C: 64.71%
[6]; 100 mg/kg orally twice daily
  Tumor Weight: 0.901 g and 0.90 ± 0.23 g
  T/C: 43.88%
